{
  "source": "patent US10231958B2",
  "about": "“Methods and compositions for enhancing chemotherapy” (THE BOARD OF REGENTS OF THE UNIVERSITY OF TEXAS SYSTEM, priority 2015, dated 2019)",
  "key": {"human endothelial cells": {"tested_on": "human endothelial cells", "assay": "In vitro angiogenesis (Angiophase kit, CD31)", "format": "cell-based", "details": "CM from sorafenib treatments", "procedure": "Quantification of MMP1 and MMP3 content in culture medium was assessed using RayBio-MMP3 and RayBio-MMP1 Elisa Kit (RayBiotech, Inc); IL8 was analyzed by Human IL-8 Elisa kit (Pierce Biotechnology). The levels of prostaglandin E2 (PGE2) were determined using the Prostaglandin E2 EIA Kit Monoclonal (Cayman Chemical Company). Culture media were diluted to fit within the standard curves. For conditioned media (CM) preparation for invasion and in vitro angiogenesis experiments, 12-well plated cells were treated with MMS (or MMS plus inhibitors) for 8 h in the presence of 10% FBS, twice washed with HBSS, and incubated with 700 μL drug/serum-free fresh medium for additional 12 h. Thereafter, the conditioned fresh medium was collected and directly used for migration and invasion experiments in order to reduce freezing associated loss of activity.\nThe Angiophase kit (MBL Inc.) was used to assess the angiogenic potential of conditioned media (CM) from breast cancer cells or the direct effect of pharmaceutical inhibitors (free-drug system) on vessel-like structures formation in vitro. With this kit, human endothelial cells are co-cultured in a specially designed medium to form threadlike tubule structures. These gradually join up to form a network of anastomosing tubules, which resemble the capillary bed found in the CAM assay. Kit-provided cryopreserved co-culture of human endothelial cells were plated and kept for 96 h (proliferative phase) without treatments. Afterwards, the cells were maintained in the presence of conditioned medium from alkylating agent treated cells or control medium for a total of 14 days (angiogenic/vasculogenic phase). Medium was changed each 2 days. At the end of treatments, the cells were fixed and immune-stained for CD31 (PECAM-1), following by incubation with secondary antibody conjugate. ELISA was developed using the soluble substrate p-nitrophenyl-phosphate (p-NPP) whose product was colorimetrically read at 405 nm. After ELISA assays, the wells were washed with dH2O and tubule staining was performed by incubating CD31-stained tubules with the substrate BCIP/NBT, which form insoluble precipitates. Tubules were counted and photographed for qualitative monitoring."}, "[1]": {"tested_on": "MDA-MB231 xenograft implants", "assay": "MDA-MB231 xenograft study", "format": "in vivo, mouse", "description": "The study was approved by the University of Texas Health Science Center at San Antonio Institutional Animal Care and Use Committee (IACUC) policy as outlined in protocol number 11024. The facility is operated in compliance with the Public Law 89-544 (Animal Welfare Act) and its amendments, Public Health Services Policy on Humane Care and Use of Laboratory Animals (PHS Policy) using the Guide for the Care and Use of Laboratory Animals (Guide) as the basis of operation. Selection of cyclophosphamide and sorafenib doses was based on previously published reports (Sun et al., 2010, J Int Med Res 38, 967-76; Wilhelm et al., 2004 Cancer Res 64, 7099-109). MDA-MB-231 cells were harvested by trypsinization, washed and re-suspended in serum-free medium. Thereafter, cells were mixed with matrigel (1:1), and approximately 5×10^6 cells were subcutaneously injected in the right flank of each mouse. When the average tumor volume reached about 100 mm^3, mice were randomized into groups of 8 animals each, and the following treatment protocol was implemented: Group 1 (control): 100 μL of saline (i.p.); Group 2: sorafenib (1 mg/kg; i.p.) for 9 days; Group 3: cyclophosphamide 0.1 g/kg on days 2, 4, 6 and 8; Group 4: Sorafenib+cyclophosphamide (combination of same above described regimens). All animals were sacrificed 5 days after the end of treatments (15th day of the treatment protocol). Body weight of mice was recorded weekly, and tumor size was measured thrice a week in two dimensions using a digital caliper. The tumor volume was calculated by the formula 0.5236 L1(L2)^2, where L1 is the long axis, and L2 is the short axis of the tumor. At the termination of the study, mice were euthanized; tumors were excised and a part was fixed in 10% phosphate-buffered formalin for H&E, Masson's staining and immunohistochemistry (IHC) analyses."}, "[2]": {"tested_on": "Intracellular ROS production", "assay": "Real-time ROS production (DCF assay)", "format": "cell-based", "details": "dose-independent, even at highly toxic MMS 80 μg/mL", "procedure": "Intracellular ROS production was detected using DCFH-DA probe (Sigma) (Zanotto-Filho et al., 2010, Cancer Lett 288, 192-203). This reagent enters the cells and reacts predominantly with highly oxidizing species of ROS, such as hydroxyl radicals, hydroperoxides, and peroxynitrite, thus producing the fluorophore DCF. Briefly, cells were seeded in black-edge clear bottom 96-well plates. After reaching 70% confluence, medium was changed and cells were incubated with 20 μM DCFH-DA dissolved in medium containing 0.5% FBS. After 1 h pre-incubation to allow DCFH-DA uptake, treatments were added to its respective final concentrations and DCF fluorescence was monitored at 0.5, 1, 3, 8, 12, 16 and 24 h in a fluorescence reader (Ex/Em=485/532 nm). Hydrogen peroxide was used as a positive control and N-acetylcysteine (NAC), GSH-ethyl-ester (GSH-E) and Trolox were used as antioxidant standards. As a control, at the end of 24 h, cell viability was assessed and compared to wells in the absence of DCFH-DA."}, "MEFs": {"tested_on": "MEFs", "assay": "Gene expression microarray in MEFs", "format": "cell-based, mouse", "details": "24 h", "procedure": "For microarray, 7.5×10^6 Kc167 Drosophila cells or 5×10^6 wild-type MEFs were seeded in T-75 cell culture flask in complete growth medium one day before treatments. On the following day, the medium was replenished with fresh growth medium or medium consisting of MMS at 40 μg/mL. Cells were harvested and pelleted at different times post treatment (0, 1, 8, 24 and 72 h), washed using ice cold phosphate buffered saline (PBS) and the RNA was extracted using the RNeasy kit protocol (Qiagen). RNA integrity was assessed by denaturing formaldehyde agarose gel electrophoresis or by microanalysis (Agilent Bioanalyzer, Santa Clara, Calif.). Microarray service was provided by Expression Analysis Inc., Durham, N.C. Affymetrix GeneChip Drosophila Genome 2.0 Array was used for the experiment performed using Kc167 cells, and Affymetrix GeneChip Mouse Genome 430A 2.0 Array was used for experiment performed using MEFs. The microarray service provided by Expression Analysis Inc., included group comparison between experimental control and MMS treatment and time course analysis based on permutation analysis of differential expression (PADE). For statistical comparison, each experiment was performed in quadruplicate."}},
  "note": "Entries after “also recorded” stand apart in the source; their conditions may differ.",
  "data": [
    {"smiles": "CNC(=O)c1cc(Oc2ccc(NC(=O)Nc3ccc(Cl)c(C(F)(F)F)c3)cc2)ccn1", "note": "[sorafenib, 4-[4-[[4-chloro-3-(trifluoromethyl)phenyl]carbamoylamino]phenoxy]-N-methyl-pyridine-2-carboxamide]", "values": [
      {"measurement": "angiogenesis with CM from treated cells", "setting": "human endothelial cells", "result": "inhibition of angiogenesis"},
      {"measurement": "tumor growth, single agent", "setting": "[1]; sorafenib 1 mg/kg i.p. 9 days, cyclophosphamide 0.1 g/kg days 2, 4, 6, 8", "result": "significantly decrease tumor growth"},
      {"measurement": "tumor growth, combination with cyclophosphamide", "setting": "[1]; sorafenib 1 mg/kg i.p. plus cyclophosphamide 0.1 g/kg", "result": "synergize with cyclophosphamide"},
      {"measurement": "tumor volume at which growth was stabilized", "setting": "[1]; sorafenib alone, 7 days of treatment", "result": "~150", "unit": "mm^3"},
      {"measurement": "effect on cyclophosphamide-induced angiogenic response", "setting": "[1]; sorafenib combined with cyclophosphamide", "result": "significant inhibition of cyclophosphamide-induced angiogenic response; also recorded: blocked cyclophosphamide-induced vessels formation"}
    ]},
    {"smiles": "COS(C)(=O)=O", "note": "[MMS, methyl-methanesulfonate]", "values": [
      {"measurement": "increase in ROS", "setting": "[2]", "result": 1.5, "unit": "fold"},
      {"measurement": "up-regulation of CAT expression", "setting": "MEFs", "result": 2.7, "unit": "fold"}
    ]}
  ]
}
